Results taken from patent US5567716A, “Trans and cis traumatic acid salts having cicatrizant activity associated to bacteriostatic, antiviral, antibiotic or antifungal activity” (priority 1992, dated 1996).
Read-outs that look alike come from different tables or passages of the source.

Legend:
[1] = test system: E.coli ATCC 35218; test: microbe, parasite or virus in culture; assay type: cell-based; settings: for MINIMAL BACTERIAL CONCENTRATION: Table 2.b)3, test concentrations given in μg/ml
Protocol: (§1) 1. Culture Medium: Tryprone Soy Broth (TBS) - Biogenetics
(§2) Microbic standard strains from American Type Culture Collection (ATCC) were used, chosen among aerobic Gram positive and negative as follows:
(§3) The broths culture of the different species are prepared growing the standard strain (kept in Tryptic Soy Agar (TSA) slent at 5° C.) in Tryptone Soy Broth (TSB) for 12 hours at 37° C. 10 ml are then taken up from each culture, centrifugated for 3 times at 3500 PM washing each time the sediment using 10 ml of sterile saline solution. The sediment is resuspended in the saline solution until obtainment of a turbidity corresponding to the Mc Farland standard solution (the suspension title must be […] UFC/ml).
(§4) The compounds, dissolved as stock solution, were added to test tubes containing 5 ml TBS in order to obtain the desired Final concentration 10000; 5000; 1000; 200; 40; 2; 0.4; 0.05 μg/ml (culture medium maximal dilution=1/10).
(§5) 50 μl of bacterial suspension are added to the tube containing the compounds to be tested and incubated at 37° C.: the densitometric determination is made in comparison with Mc Farland standard solution 24 and 48 hours later.
(§6) After the incubation time the suspensions ape gently agitated; 50 μl of each suspension are inoculated in tubes containing […] of TSB and incubated at 37° C.; the densitometric determination is made 48 hours later.
(§7) BMC is defined by comparison between the two densitometric evaluation.

[2] = test system: St.aureus ATCC 65380; test: Evaluation of bacteriostatic minimal concentration (BMC); assay type: cell-based; settings: for MINIMAL BACTERIAL CONCENTRATION: Table 2.b)2, test concentrations given in μg/ml
Protocol: as §1, §2, §3, §4, §5, §6, §7

[3] = test system: Ps.aeruginosa ATCC 35422; test: as above; assay type: cell-based; settings: for MINIMAL BACTERIAL CONCENTRATION: Table 2.b)1, test concentrations given in μg/ml
Protocol: as §1, §2, §3, §4, §5, §6, §7

[4] = Physical chemical characteristics: solubility in water and organic solvents
[5] = test system: B.subtilis ATCC 6633; test: Evaluation of bacteriostatic minimal concentration (BMC); assay type: cell-based; settings: test concentrations given in μg/ml; for MINIMAL BACTERIAL CONCENTRATION: Table 2.b)5
Protocol: as §1, §2, §3, §4, §5, §6, §7

[6] = test system: St.epidermidis ATCC 14990; test: as above; assay type: cell-based; settings: test concentrations given in μg/ml; for MINIMAL BACTERIAL CONCENTRATION: Table 2.b)4
Protocol: as §1, §2, §3, §4, §5, §6, §7

[7] = test system: C.albicans ATCC 10231; test: as above; assay type: cell-based; settings: test concentrations given in μg/ml; for MINIMAL BACTERIAL CONCENTRATION: Table 2.b)6
Protocol: as §1, §2, §3, §4, §5, §6, §7

[8] = test system: Balb/C 3T3 fibroblasts; test: Cell growth of Balb/C 3T3 fibroblasts, crystal violet colorimetry (1.1b); assay type: cell-based, Mouse; settings: for cell growth t2/t1: 48 h/24 h, control 76.776
Protocol: Mouse Balb/C 3T3 fibroblasts were grown in DMEM medium supplemented with penicillin (100 units/ml) and streptomycin (0.1 mg/ml). For experimental purposes, cells are routinely inoculated in […] diameter culture dishes (5000cells/dish) and cultured overnight.
The compounds to be tested are solubilized in DMEM+10%FCS and DMSO to obtain the final concentration of 10^-5 M, 10^-6 M e 10^-7 M in 0.05% DMSO.
The cells number is measured 4, 24 and 48 hours after seeding. The cell growth is evaluated as t2/t1 ratio (%).

## NC[C@H]1O[C@H](O[C@H]2[C@H](O)[C@@H](O[C@H]3O[C@H](CO)[C@@H](O)[C@H](N)[C@H]3O)[C@H](N)C[C@@H]2N)[C@H](N)C[C@@H]1O.NC[C@H]1O[C@H](O[C@H]2[C@H](O)[C@@H](O[C@H]3O[C@H](CO)[C@@H](O)[C@H](N)[C@H]3O)[C@H](N)C[C@@H]2N)[C@H](N)C[C@@H]1O.O=C(O)/C=C/CCCCCCCCC(=O)O.O=C(O)/C=C/CCCCCCCCC(=O)O.O=C(O)/C=C/CCCCCCCCC(=O)O.O=C(O)/C=C/CCCCCCCCC(=O)O.O=C(O)/C=C/CCCCCCCCC(=O)O [Tobramycin Traumatate, tobramycin trans-traumatate]
dmso
  organic solvent solubility: > 10000 µg/mL
water
  solubility in water: > 10000 µg/mL
[1]
  MINIMAL BACTERIAL CONCENTRATION: 200.00
[2]
  MINIMAL BACTERIAL CONCENTRATION: 1,000.00
[3]
  MINIMAL BACTERIAL CONCENTRATION: 5,000

## O=C([O-])/C=C/CCCCCCCCC(=O)[O-].[Zn+2] [Zinc Traumatate, zinc trans-traumatate]
[4]; 5% nh3
  solubility: > 10000 µg/mL
[4]; in DMSO, in words
  organic solvent solubility: poorly soluble
[4]; in ethanol, in words
  organic solvent solubility: poorly soluble
[4]; water, in words
  water solubility: poorly soluble
[1]; Escherichia coli, ATCC35218, read-out: MINIMAL BACTERIAL CONCENTRATION
  MIC: > 10000 µg/mL
[5]; Bacillus subtilis, ATCC6633; Table 2.b)5, read-out: MINIMAL BACTERIAL CONCENTRATION
  MIC: > 10000 µg/mL
[6]; Staphylococcus epidermidis, ATCC14990; Table 2.b)4, read-out: MINIMAL BACTERIAL CONCENTRATION
  MIC: > 10000 µg/mL
[7]; Candida albicans, ATCC10231; Table 2.b)6, read-out: MINIMAL BACTERIAL CONCENTRATION
  MIC: > 10000 µg/mL
[2]; Staphylococcus aureus, ATCC65380, read-out: MINIMAL BACTERIAL CONCENTRATION
  MIC: > 10000 µg/mL
[3]; Pseudomonas aeruginosa, ATCC35422, read-out: MINIMAL BACTERIAL CONCENTRATION
  MIC: > 10000 µg/mL

## rolitetracycline trans-traumatate [Rolitetracycline Traumatate]
[4]; in DMSO
  organic solvent solubility: > 10000 µg/mL
[4]; water
  solubility in water: > 10000 µg/mL
[1]
  MINIMAL BACTERIAL CONCENTRATION: 1,000.00
[5]
  MINIMAL BACTERIAL CONCENTRATION: 40.00
[6]
  MINIMAL BACTERIAL CONCENTRATION: 200.00
[7]
  MINIMAL BACTERIAL CONCENTRATION: 1,000.00
[2]
  MINIMAL BACTERIAL CONCENTRATION: 5,000.00
[3]
  MINIMAL BACTERIAL CONCENTRATION: 10,000.00
[8]; 10^-5 to 10^-7 M, in words, lincomycin > rolitetracycline > erythromycin salt
  promotion of cell growth: capable to promote cell growth at all the tested doses
[8]; 4 h (t0), 10^-5M, control 0.300
  Cell density: 0.46
[8]; 4 h (t0), 10^-6M, control 0.300
  Cell density: 0.475
[8]; 4 h (t0), 10^-7M, control 0.300
  Cell density: 0.482
[8]; 24 h (t1), 10^-5M, control 0.481
  Cell density: 0.255
[8]; 24 h (t1), 10^-6M, control 0.481
  Cell density: 0.356
[8]; 24 h (t1), 10^-7M, control 0.481
  Cell density: 0.287
[8]; 48 h (t2), 10^-5M, control 0.849
  Cell density: 0.678
[8]; 48 h (t2), 10^-6M, control 0.849
  Cell density: 0.660
[8]; 48 h (t2), 10^-7M, control 0.849
  Cell density: 0.828
[8]; 10^-5M
  cell growth t2/t1: 166.39%
[8]; 10^-6M
  cell growth t2/t1: 186.69%
[8]; 10^-7M
  cell growth t2/t1: 185.44%
[8]; in words
  cell growth effect compared to traumatic acid: more consistent if compared to the corresponding one of the parent compound traumatic acid

## silver trans-traumatate [Silver Traumatate]
5% nh3
  solubility in 5% NH3: > 10000 µg/mL
[1]
  MINIMAL BACTERIAL CONCENTRATION: 40.00
[5]
  MINIMAL BACTERIAL CONCENTRATION: 200.00
[6]
  MINIMAL BACTERIAL CONCENTRATION: 200.00
[7]
  MINIMAL BACTERIAL CONCENTRATION: > 10,000
[2]
  MINIMAL BACTERIAL CONCENTRATION: 40.00
[3]
  MINIMAL BACTERIAL CONCENTRATION: 40.00
